Data from US12252457B2, “Compositions and methods for reducing tactile dysfunction, anxiety, and social impairment” (President and Fellows of Harvard College, priority 2018, dated 2025).

System: Mecp2^R306C and Shank3B^+/− mice
Test: Chronic isoguvacine treatment from P0-P42 of Mecp2 and Shank3 germline mutant mice
Assay type: in vivo, mouse
Protocol: FIGS. 21A-21O show chronic administration of isoguvacine improves tactile over-reactivity, region-selective cortical abnormalities, and some ASD-related behaviors in Mecp2 and Shank3 mutant mice. FIG. 21A: Representative images of P21 control and Mecp2^C/y mutant mice treated daily from P0-21 with either saline or isoguvacine (2 mg/kg). FIG. 21B: Average phenotypic score of P21 Shank3B^+/− or Mecp2^C/y mutant mice and control littermates treated daily with either saline or isoguvacine (2 mg/kg). One-way ANOVA with post-hoc Tukey's test, *, p<0.05. FIG. 21C: Average bodyweight of P21 Shank3B^+/− or Mecp2^C/y mutant mice and control littermates treated daily with either saline or isoguvacine (2 mg/kg). One-way ANOVA with post-hoc Tukey's test, *, p<0.05. […] One-way ANOVA with post-hoc Tukey's test, *, p<0.05. FIG. 21E: Discrimination index for textured NORT. One-way ANOVA with post-hoc Tukey's test, *, p<0.05. FIG. 21F: Representative activity traces in the OF test. FIG. 21G: Percent time spent in the center of the OF chamber. One-way ANOVA with post-hoc Tukey's test, *, p<0.05. FIG. 21H: Percent time spent in the open arms of the EPM. One-way ANOVA with post-hoc Tukey's test, *, p<0.05. FIGS. 21I-21J: Preference index for the percentage of time spent investigating the novel mouse in the “Sociability” (FIG. 21I) or “Social Novelty Recognition Preference” (FIG. 21J) portion of the 3-chamber social interaction test. One-way ANOVA with post-hoc Tukey's test, *, p<0.05. FIG. 21K: Representative IHC images of transverse S1 brain sections, showing PV immunoreactivity in Shank3B^+/− or Mecp2^C/y mutant mice and control littermates treated daily from P1-42 with either saline or isoguvacine (2 mg/kg). FIGS. 21L-21M: Quantification of the number of PV-positive (PV^+) neurons in S1 (FIG. 21L) and V1 (FIG. 21M). One-way ANOVA with post-hoc Tukey's test, *, p<0.05. FIG. 21N: Representative traces showing ePSCS (−70 my hold) and iPSCs (0 mV hold) from S1 slices from Shank3B^+/− or Mecp2^C/y mutant mice and control littermates treated daily from P1-42 with either saline or isoguvacine (2 mg/kg). FIG. 21O: Quantification of excitatory/inhibitory (E/I) ratio in S1 or V1 slices from control and mutant mice. One-way ANOVA with post-hoc Tukey's test, *, p<0.05.
Therefore, it was tested whether chronic treatment of Mecp2 and Shank3 germline mutant mice with isoguvacine beginning shortly after birth (i.p. administration, 2 mg/kg per daily, from P0-P42) improves any of the ASD-related phenotypes commonly observed in adulthood. […] Taken together, treatment with a peripherally restricted GABAA receptor agonist during early postnatal development may provide an effective therapeutic strategy for improving tactile over-reactivity and a subset of other key features of ASD, including anxiety, without causing sedation and other undesirable effects of activating brain GABAA receptors during development.

For `O=C(O)C1=CCNCC1` [Isoguvacine, isoguvacine], the “tactile over-reactivity, anxiety-like behaviors, social impairments, PV+ neuron abnormalities in S1 and BLA, E/I ratios in S1” value (8-week-old mice, 2 mg/kg i.p. daily P0-P42) was “significantly improved multiple ASD-associated behavioral phenotypes”, the motor impairments (Mecp2 mutants, chronic 2 mg/kg) was “not improved” and the “overall body appearance, or phenotypic score” value (P21, 2 mg/kg i.p. daily, vs saline-treated) was “substantial improvement”. The “bodyweight of mutant mice” value (P21, Shank3B and Mecp2 mutant mice, 2 mg/kg daily) was “increased bodyweight and were not different in weight from control mice”, the overgrooming phenotype (Shank3 mutants, chronic 2 mg/kg) was “nor was the overgrooming phenotype rescued” and the “textured discrimination deficits, acoustic PPI performance, memory impairments, PV+ neuron abnormalities and E/I ratios in V1” value (Shank3 or Mecp2 mutants, 2 mg/kg i.p. daily P0-P42) was “did not improve”.
